{
  "source": "patent US20230000903A1",
  "about": "“METHODS AND SYSTEMS FOR NITRIC OXIDE THERAPY FOR THE TREATMENT OR PREVENTION OF RESPIRATORY INFECTIONS” (KNOW Bio, LLC, priority 2020, published 2023)",
  "origin": "cited, not measured here",
  "data": [
    {"smiles": "[N]=O", "note": "[NO, nitric oxide]", "values": [
      {"measurement": "radius of action from its site of origin", "setting": "beyond which it is inactivated by binding to thiols or heme of hemoglobin", "value": "approximately 200 microns"},
      {"measurement": "half-life in the body", "setting": "in the body", "value": "less than 6 seconds"},
      {"measurement": "share of the nitric oxide dose inhaled excreted in the urine as nitrate", "setting": "urine, nitrate as predominant metabolite, inhaled dose", "value": "more than 70%"}
    ]}
  ]
}
